Laboratory results: patent US8969586B2 (Bristol-Myers Squibb Company, priority 2011, dated 2015)

Target: Human CYP17 (Homo sapiens (Human), UniProt P05093)
Test: CYP17 Total SPA Assay
Format: biochemical
Conditions: microsomes from HEK2 cells stably transfected with CYP17; 3H-Pregnenolone 1 uM, NADPH 2 mM; 45 minutes at room temperature
Method: The assays were performed in U-bottom 384-well optiplates. The final assay volume was 15 μl prepared from 7.5 μl additions of microsomes (prepared as a high-speed pellet from homogenized HEK2 cells stably transfected with CYP17), substrates (3H-Pregnenolone and NADPH) and test compounds in assay buffer (50 mM Potassium phosphate pH 7.2, 10% glycerol). The reaction was initiated by the combination of the microsomes and substrates in wells containing compound. The reaction was incubated at room temperature for 45 minutes and terminated by adding 7.5 μl of 0.2N HCl to each well. Following an incubation period of 10 minutes, anti-DHEA-coated SPA beads were added to the terminated reaction. The plate was sealed and incubated overnight with shaking at 4° C. The beads were allowed to settle in the plate for 1 hour and the plate read on a TOPCOUNT® (Perkin-Elmer) plate reader.
Inhibition data were calculated by comparison to no enzyme control reactions for 100% inhibition and vehicle-only reactions for 0% inhibition. The final concentration of reagents in the assays are NADPH, 2 mM; 3H-Pregnenolone, 1 uM; microsomes, 1.25 ug/ml; Anti-DHEA-SPA beads (0.125 mg/well) in 0.5% Triton X-100 and DMSO, 0.05%. Dose response curves were generated to determine the concentration required inhibiting 50% of enzyme activity (IC50). Compounds were dissolved at 10 mM in dimethylsulfoxide (DMSO) and evaluated at eleven concentrations, each in duplicate. IC50 values were derived by non-linear regression analysis.
Table 5 below lists the IC50 values for the following examples of this invention measured in the Total CYP17 SPA Assay hereinabove.

Sequence of Human CYP17 (P05093 whole entry): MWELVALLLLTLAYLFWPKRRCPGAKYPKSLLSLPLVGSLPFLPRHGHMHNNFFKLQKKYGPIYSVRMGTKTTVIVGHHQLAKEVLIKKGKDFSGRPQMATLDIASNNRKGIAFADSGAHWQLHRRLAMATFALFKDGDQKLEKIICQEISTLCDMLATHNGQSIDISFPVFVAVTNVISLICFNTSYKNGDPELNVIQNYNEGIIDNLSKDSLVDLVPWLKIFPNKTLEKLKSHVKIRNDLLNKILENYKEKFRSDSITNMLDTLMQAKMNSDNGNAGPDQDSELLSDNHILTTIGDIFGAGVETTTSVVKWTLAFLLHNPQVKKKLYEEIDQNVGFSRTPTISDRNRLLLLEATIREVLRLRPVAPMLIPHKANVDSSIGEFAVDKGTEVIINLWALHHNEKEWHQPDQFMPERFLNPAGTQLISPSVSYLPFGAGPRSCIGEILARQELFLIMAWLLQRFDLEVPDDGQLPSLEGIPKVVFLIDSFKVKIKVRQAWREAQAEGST

SMILES	IC50
Fc1ccc(-c2csc3c(-c4cncnc4C4CC4)ccnc23)cc1 [Example 99, 7-(4-Cyclopropylpyrimidin-5-yl)-3-(4-fluorophenyl)thieno[3,2-b]pyridine]	4 nM
Clc1ccncc1-c1cccc2c(C3CC3)noc12 [Example 30, 7-(4-Chloropyridin-3-yl)-3-cyclopropylbenzo[d]isoxazole]	48 nM
COc1ccc(COc2noc3c(-c4cnccc4C)cccc23)cc1 [Example 129, 3-(4-methoxybenzyloxy)-7-(4-methylpyridin-3-yl)benzo[d] isoxazole]	79 nM
Cc1ccncc1-c1cccc2c(OCCN(C)C)noc12 [Example 68]	524 nM
Cc1ccncc1-c1ccnc2c(-c3ccc(F)cc3)noc12 [Example 86, 3-(4-Fluorophenyl)-7-(4-methylpyridin-3-yl)isoxazolo[4,5-b]pyridine]	3.9 nM
Nc1ncncc1-c1ccnc2c(-c3ccc(F)cc3Cl)csc12 [Example 103, 5-(3-(2-Chloro-4-fluorophenyl)thieno[3,2-b]pyridin-7-yl)pyrimidin-4-amine]	4 nM
Cc1ccncc1-c1ccnc2c(-c3nccs3)csc12 [Example 94, 7-(4-Methylpyridin-3-yl)-3-(thiazol-2-yl)thieno[3,2-b]pyridine]	76 nM
Cc1ncncc1-c1ccnc2c(-c3ccc(F)cc3)csc12 [Example 98, 3-(4-Fluorophenyl)-7-(4-methylpyrimidin-5-yl)thieno[3,2-b]pyridine]	8 nM
Cc1ccncc1-c1cccc2c(OCc3ccc(Cl)cc3)noc12 [Example 128, 3-(4-chlorobenzyloxy)-7-(4-methylpyridin-3-yl)benzo[d] isoxazole]	251 nM
Fc1ccc(-c2csc3c(-c4cncc5ccccc45)cccc23)cc1 [Example 109, 4-(3-(4-Fluorophenyl)benzo[b]thiophen-7-yl)isoquinoline]	56 nM

Results, then the compound that gave them:

IC50	SMILES
1.1 nM	Cc1ccncc1-c1cccc2c(-c3ccccc3)noc12 [Example 1, 7-(4-Methylpyridin-3-yl)-3-phenylbenzo[d]isoxazole]
3.2 nM	Cc1ccncc1-c1cccc2c(-c3ccc(F)cc3)noc12 [Example 6, 3-(4-Fluorophenyl)-7-(4-methylpyridin-3-yl)benzo[d]isoxazole]
357 nM	Cc1ncncc1-c1cccc2c(-c3ccccc3)noc12 [Example 4, 7-(4-Methylpyrimidin-5-yl)-3-phenylbenzo[d]isoxazole]
65 nM	FC(F)(F)COc1ncncc1-c1cccc2c(-c3cnccn3)noc12 [Example 26, 3-(Pyrazin-2-yl)-7-(4-(2,2,2-trifluoroethoxy)pyrimidin-5-yl)benzo[d]isoxazole]
192 nM	Fc1ccc(-c2noc3c(-c4cncn5cccc45)cccc23)cc1 [Example 14, 3-(4-Fluorophenyl)-7-(pyrrolo[1,2-c]pyrimidin-4-yl)benzo[d]isoxazole]
611 nM	Cc1ccncc1-c1cccc2c(OCc3ccc4ccccc4c3)noc12 [Example 124, 7-(4-methylpyridin-3-yl)-3-(naphthalen-2-ylmethoxy)benzo [d]isoxazole]
524 nM	Clc1ccccc1-c1noc2c(-c3cncnc3-n3nccn3)cccc12 [Example 57, 7-(4-(2H-1,2,3-Triazol-2-yl)pyrimidin-5-yl)-3-(2-chlorophenyl)benzo[d]isoxazole]
42 nM	Clc1ccccc1-c1noc2c(-c3cncnc3-n3cncn3)cccc12 [Example 52, 7-(4-(1H-1,2,4-Triazol-1-yl)pyrimidin-5-yl)-3-(2-chlorophenyl)benzo[d]isoxazole]
